{"source": "the RepoRT retention time repository", "note": "Counter-ions that a name gives are not always drawn.", "data": [{"assay": "HILIC, Merck SeQuant ZIC-HILIC, 25 °C, 0.25 mL/min; A: water + 16 mM ammonium formate; B: acetonitrile + 0.1% formic acid, pH 3; gradient (min/%B) 0/97 2/97 10/70 15/10 17/10 18/97 25/97", "conditions": "stereoisomer not certain", "units": {"LC retention time": "min"}, "values": [{"smiles": "NC(CO)Cc1cnc[nH]1", "note": "(stereo not drawn) [HISTIDINOL]", "LC retention time": 17}, {"smiles": "CC(=O)OC(CC(=O)[O-])C[N+](C)(C)C", "note": "(stereo not drawn) [o-acetyl-l-carnitine hydrochloride]", "LC retention time": 13}, {"smiles": "COC(=O)Cc1ccc(O)cc1", "note": "[Methyl 4-hydroxyphenylacetate]", "LC retention time": 1.67}, {"smiles": "Nc1nc2c(c(=O)[nH]1)N=C(CNc1ccc(C(=O)NC(CCC(=O)O)C(=O)O)cc1)CN2", "note": "(stereo not drawn) [DIHYDROFOLATE]", "LC retention time": 12.4}, {"smiles": "Cc1ncc(CO)c(CN)c1O", "note": "[PYRIDOXAMINE]", "LC retention time": 14.6}, {"smiles": "O=C1OC(CO)C(O)C(O)C1O", "note": "(stereo not drawn) [GLUCONOLACTONE]", "LC retention time": 14.5}, {"smiles": "CCCCCCCCCCCCCCCC(=O)OCC(O)COP(=O)(O)O", "note": "(stereo not drawn) [16:0_LysoPA]", "LC retention time": 9.22}, {"smiles": "Cc1cccnc1", "note": "[3-Methylpyridine (3-Picoline)]", "LC retention time": 2.16}, {"smiles": "C=C1CCC(O)CC1=CC=C1CCCC2(C)C1CCC2C(C)C=CC(C)C(C)C", "note": "(stereo not drawn) [VITAMIN D2]", "LC retention time": 1.55}, {"smiles": "CC(=O)NC1C(O)CC(O)(C(=O)O)OC1C(O)C(O)CO", "note": "(stereo not drawn) [N-Acetylneuraminic acid]", "LC retention time": 13.9}, {"smiles": "CC(CCC(=O)O)C1CCC2C3C(=O)CC4CC(O)CCC4(C)C3CC(=O)C12C", "note": "(stereo not drawn) [5b-cholanic acid-3a-OL-7-12-DIONE]", "LC retention time": 1.92}, {"smiles": "O=C(O)c1cccc(O)c1", "note": "[3-HYDROXYBENZOATE]", "LC retention time": 2.15}, {"smiles": "COC1=C(OC)C(=O)C(CC=C(C)CCC=C(C)C)=C(C)C1=O", "note": "[coenzyme Q2]", "LC retention time": 1.52}, {"smiles": "C=C(C)C1CCC2(C(=O)O)CCC3(C)C(CCC4C5(C)CCC(O)C(C)(C)C5CCC43C)C12", "note": "(stereo not drawn) [Betulinic acid]", "LC retention time": 1.58}, {"smiles": "O=C(O)c1cc(=O)c2ccccc2[nH]1", "note": "[Kynurenic acid]", "LC retention time": 9.58}, {"smiles": "NCCCC[C@H](N)C(=O)O", "note": "[L-Lysine]", "LC retention time": 16.1}, {"smiles": "NCCCC(=O)O", "note": "[GAMMA-AMINOBUTYRATE]", "LC retention time": 13.5}, {"smiles": "O=C(O)C(O)C(O)C(O)C(O)COP(=O)(O)O", "note": "(stereo not drawn) [6-PHOSPHOGLUCONATE]", "LC retention time": 15.1}, {"smiles": "O=C(O)C(O)COP(=O)(O)O", "note": "(stereo not drawn) [3-PHOSPHOGLYCERATE]", "LC retention time": 18.1}, {"smiles": "NC1(C(=O)O)CCCCC1", "note": "[1-Aminocyclohexanecarboxylic acid]", "LC retention time": 11.7}, {"smiles": "NCCc1ccc(O)c(O)c1", "note": "[DOPAMINE]", "LC retention time": 12.5}, {"smiles": "COC1C(O)C(CO)OC1n1cnc2c(=O)[nH]cnc21", "note": "(stereo not drawn) [2'-O-Methylinosine]", "LC retention time": 8.49}, {"smiles": "O=C(O)CC(O)(CC(=O)O)C(=O)O", "note": "[CITRATE]", "LC retention time": 13}, {"smiles": "NC(Cc1cc(I)c(O)c(I)c1)C(=O)O", "note": "[3-5-DIIODO-L-TYROSINE]", "LC retention time": 10.5}, {"smiles": "Cn1c(=O)c2[nH]c(=O)[nH]c2n(C)c1=O", "note": "[1-3-Dimethyluric acid]", "LC retention time": 2.19}, {"smiles": "CC(CCC(=O)O)CC(=O)O", "note": "(stereo not drawn) [3-Methyladipic acid]", "LC retention time": 2.13}, {"smiles": "NC(CCCC(N)C(=O)O)C(=O)O", "note": "(stereo not drawn) [LL-2-6-DIAMINOHEPTANEDIOATE]", "LC retention time": 15.4}, {"smiles": "N[C@H](C(=O)O)c1ccc(O)cc1", "note": "[4-HYDROXY-L-PHENYLGLYCINE]", "LC retention time": 13.3}, {"smiles": "O=Cc1ccc(O)cc1", "note": "[4-HYDROXYBENZALDEHYDE]", "LC retention time": 1.77}, {"smiles": "Nc1ncnc2c1ncn2C1OC(CO)C(OP(=O)(O)O)C1O", "note": "(stereo not drawn) [Adenosine 3'-monophosphate free acid]", "LC retention time": 13.2}, {"smiles": "O=c1ccn(C2OC(CO)C(O)C2O)c(=O)[nH]1", "note": "(stereo not drawn) [URIDINE]", "LC retention time": 9}, {"smiles": "O=P(O)(O)OCC(O)CO", "note": "(stereo not drawn) [GLYCEROL 3-PHOSPHATE]", "LC retention time": 14.1}, {"smiles": "CC12CCC(=O)C=C1CCC1C2C(O)CC2(C)C(C(=O)CO)CCC12", "note": "(stereo not drawn) [CORTICOSTERONE]", "LC retention time": 1.74}, {"smiles": "NC(=O)C1CCCN1C(=O)C(Cc1cnc[nH]1)NC(=O)C1CCC(=O)N1", "note": "(stereo not drawn) [THYROTROPIN RELEASING HORMONE]", "LC retention time": 13.3}, {"smiles": "Nc1nc2nc[nH]c2c(=O)[nH]1", "note": "[GUANINE]", "LC retention time": 10.8}, {"smiles": "NCC(=O)NCC(=O)O", "note": "[Gly-Gly]", "LC retention time": 14.9}, {"smiles": "O=C(O)Cc1cnc[nH]1", "note": "[4-IMIDAZOLEACETATE]", "LC retention time": 13.6}, {"smiles": "COC(=O)CCCCC(=O)O", "note": "[mono-Methyl adipate]", "LC retention time": 1.71}]}]}
